Test results as given in ChEMBL document CHEMBL3885881, “DrugMatrix”.

Organism: Rattus norvegicus
Assay: DrugMatrix - Regimen: Daily Repeat
Format: toxicity, organism-based, Sprague-Dawley
Set-up: regimen Daily Repeat, gender Male, age 6-8 weeks
Details: in vivo, po, route oral GAVAGE, vehicle 100 % SALINE; for ABSOLUTE BASOPHIL / ABSOLUTE EOSINOPHIL / ABSOLUTE LYMPHOCYTE / ABSOLUTE MONOCYTE / ABSOLUTE SEGMENTED NEUTROPHIL / BASOPHIL / EOSINOPHIL / ERYTHROCYTE COUNT / HEMATOCRIT / HEMOGLOBIN / LEUKOCYTE COUNT / LYMPHOCYTE / MEAN CORPUSCULAR HEMOGLOBIN / MEAN CORPUSCULAR HEMOGLOBIN CONCENTRATION / MEAN CORPUSCULAR VOLUME / MONOCYTE / NEUTROPHIL / NUCLEATED RED BLOOD CELLS / PLATELET COUNT: tissue Blood; for ALANINE AMINOTRANSFERASE / ALBUMIN / ALKALINE PHOSPHATASE / ASPARTATE AMINOTRANSFERASE / BLOOD UREA NITROGEN / CARBON DIOXIDE / CHLORIDE / CHOLESTEROL / CREATINE PHOSPHOKINASE / CREATININE / GLUCOSE / LACTATE DEHYDROGENASE / LIPASE / PHOSPHORUS / POTASSIUM / SODIUM / TOTAL BILIRUBIN / TOTAL PROTEIN / URIC ACID: tissue Plasma
[1] = 0 mg/kg, 72 h, dose level Control, time 3 day
[2] = 0 mg/kg, 120 h, dose level Control, time 5 day
[3] = 34 mg/kg, 72 h, dose level High, time 3 day
[4] = 34 mg/kg, 120 h, dose level High, time 5 day

CCN(CC)N=O [N-NITROSODIETHYLAMINE]
ABSOLUTE BASOPHIL [1]: 0 CELLS/uL | ABSOLUTE EOSINOPHIL [1]: 0 CELLS/uL | ABSOLUTE LYMPHOCYTE [1]: 8960.83 CELLS/uL | ABSOLUTE MONOCYTE [1]: 103.5 CELLS/uL | ABSOLUTE SEGMENTED NEUTROPHIL [1]: 635.67 CELLS/uL | BASOPHIL [1]: 0% | EOSINOPHIL [1]: 0% | ERYTHROCYTE COUNT [1]: 5.09 x10E6/uL | HEMATOCRIT [1]: 31.8% | HEMOGLOBIN [1]: 12.42 G/DL | LEUKOCYTE COUNT [1]: 9.7 x10E3/uL | LYMPHOCYTE [1]: 92.33% | MEAN CORPUSCULAR HEMOGLOBIN [1]: 24.4 pg | MEAN CORPUSCULAR HEMOGLOBIN CONCENTRATION [1]: 39.07 G/DL | MEAN CORPUSCULAR VOLUME [1]: 62.47 fL | MONOCYTE [1]: 1% | NEUTROPHIL [1]: 6.67% | NUCLEATED RED BLOOD CELLS [1]: 0 /100WBC | PLATELET COUNT [1]: 466.5 x10E3/uL | ALANINE AMINOTRANSFERASE [1]: 83.33 u/L | ALBUMIN [1]: 4.33 G/DL | ALKALINE PHOSPHATASE [1]: 340.5 u/L | ASPARTATE AMINOTRANSFERASE [1]: 189.83 u/L | BLOOD UREA NITROGEN [1]: 15.83 mg/dL | CARBON DIOXIDE [1]: 38 mmol/L | CHLORIDE [1]: 96.83 MEQ/L | CHOLESTEROL [1]: 72.5 mg/dL | CREATINE PHOSPHOKINASE [1]: 370.67 u/L | CREATININE [1]: 0.28 mg/dL | GLUCOSE [1]: 182.83 mg/dL | LACTATE DEHYDROGENASE [1]: 513.5 u/L | LIPASE [1]: 9.83 u/L | PHOSPHORUS [1]: 11.32 mg/dL | POTASSIUM [1]: 6.32 MEQ/L | SODIUM [1]: 145.12 MEQ/L | TOTAL BILIRUBIN [1]: 0.2 mg/dL | TOTAL PROTEIN [1]: 6.4 G/DL | URIC ACID [1]: 2.03 mg/dL | ABSOLUTE BASOPHIL [2]: 0 CELLS/uL | ABSOLUTE EOSINOPHIL [2]: 43.83 CELLS/uL | ABSOLUTE LYMPHOCYTE [2]: 7316.67 CELLS/uL | ABSOLUTE MONOCYTE [2]: 87.33 CELLS/uL | ABSOLUTE SEGMENTED NEUTROPHIL [2]: 418.83 CELLS/uL | BASOPHIL [2]: 0% | EOSINOPHIL [2]: 0.33% | ERYTHROCYTE COUNT [2]: 4.77 x10E6/uL | HEMATOCRIT [2]: 29.93% | HEMOGLOBIN [2]: 11.48 G/DL | LEUKOCYTE COUNT [2]: 7.87 x10E3/uL | LYMPHOCYTE [2]: 93.5% | MEAN CORPUSCULAR HEMOGLOBIN [2]: 24.17 pg | MEAN CORPUSCULAR HEMOGLOBIN CONCENTRATION [2]: 38.57 G/DL | MEAN CORPUSCULAR VOLUME [2]: 62.68 fL | MONOCYTE [2]: 1% | NEUTROPHIL [2]: 5.17% | NUCLEATED RED BLOOD CELLS [2]: 0 /100WBC | PLATELET COUNT [2]: 377.67 x10E3/uL | ALANINE AMINOTRANSFERASE [2]: 89 u/L | ALBUMIN [2]: 4.42 G/DL | ALKALINE PHOSPHATASE [2]: 275.17 u/L | ASPARTATE AMINOTRANSFERASE [2]: 204.17 u/L | BLOOD UREA NITROGEN [2]: 15.33 mg/dL | CARBON DIOXIDE [2]: 36.83 mmol/L | CHLORIDE [2]: 94.67 MEQ/L | CHOLESTEROL [2]: 92 mg/dL | CREATINE PHOSPHOKINASE [2]: 514.5 u/L | CREATININE [2]: 0.24 mg/dL | GLUCOSE [2]: 184.17 mg/dL | LACTATE DEHYDROGENASE [2]: 648.67 u/L | LIPASE [2]: 10 u/L | PHOSPHORUS [2]: 12.33 mg/dL | POTASSIUM [2]: 6.51 MEQ/L | SODIUM [2]: 144.63 MEQ/L | TOTAL BILIRUBIN [2]: 0.18 mg/dL | TOTAL PROTEIN [2]: 6.7 G/DL | URIC ACID [2]: 2.33 mg/dL | ABSOLUTE BASOPHIL [3]: 0 CELLS/uL | ABSOLUTE EOSINOPHIL [3]: 38.67 CELLS/uL | ABSOLUTE LYMPHOCYTE [3]: 8206.67 CELLS/uL | ABSOLUTE MONOCYTE [3]: 88.33 CELLS/uL | ABSOLUTE SEGMENTED NEUTROPHIL [3]: 499.67 CELLS/uL | BASOPHIL [3]: 0% | EOSINOPHIL [3]: 0.33% | ERYTHROCYTE COUNT [3]: 6.73 x10E6/uL | HEMATOCRIT [3]: 41.13% | HEMOGLOBIN [3]: 15.77 G/DL | LEUKOCYTE COUNT [3]: 8.83 x10E3/uL | LYMPHOCYTE [3]: 93.33% | MEAN CORPUSCULAR HEMOGLOBIN [3]: 23.47 pg | MEAN CORPUSCULAR HEMOGLOBIN CONCENTRATION [3]: 38.37 G/DL | MEAN CORPUSCULAR VOLUME [3]: 61.23 fL | MONOCYTE [3]: 1% | NEUTROPHIL [3]: 5.33% | NUCLEATED RED BLOOD CELLS [3]: 0 /100WBC | PLATELET COUNT [3]: 912.67 x10E3/uL | ALANINE AMINOTRANSFERASE [3]: 112.33 u/L | ALBUMIN [3]: 4.2 G/DL | ALKALINE PHOSPHATASE [3]: 292.67 u/L | ASPARTATE AMINOTRANSFERASE [3]: 218.67 u/L | BLOOD UREA NITROGEN [3]: 13 mg/dL | CARBON DIOXIDE [3]: 38.67 mmol/L | CHLORIDE [3]: 96.33 MEQ/L | CHOLESTEROL [3]: 79.33 mg/dL | CREATINE PHOSPHOKINASE [3]: 309.67 u/L | CREATININE [3]: 0.53 mg/dL | GLUCOSE [3]: 161.33 mg/dL | LACTATE DEHYDROGENASE [3]: 311 u/L | LIPASE [3]: 9.67 u/L | PHOSPHORUS [3]: 11.2 mg/dL | POTASSIUM [3]: 6.34 MEQ/L | SODIUM [3]: 146.93 MEQ/L | TOTAL BILIRUBIN [3]: 0.2 mg/dL | TOTAL PROTEIN [3]: 6.03 G/DL | URIC ACID [3]: 2.2 mg/dL | ABSOLUTE BASOPHIL [4]: 0 CELLS/uL | ABSOLUTE EOSINOPHIL [4]: 0 CELLS/uL | ABSOLUTE LYMPHOCYTE [4]: 7416.33 CELLS/uL | ABSOLUTE MONOCYTE [4]: 148.33 CELLS/uL | ABSOLUTE SEGMENTED NEUTROPHIL [4]: 435.33 CELLS/uL | BASOPHIL [4]: 0% | EOSINOPHIL [4]: 0% | ERYTHROCYTE COUNT [4]: 6.58 x10E6/uL | HEMATOCRIT [4]: 41.63% | HEMOGLOBIN [4]: 15.6 G/DL | LEUKOCYTE COUNT [4]: 8 x10E3/uL | LYMPHOCYTE [4]: 94% | MEAN CORPUSCULAR HEMOGLOBIN [4]: 23.7 pg | MEAN CORPUSCULAR HEMOGLOBIN CONCENTRATION [4]: 37.47 G/DL | MEAN CORPUSCULAR VOLUME [4]: 63.27 fL | MONOCYTE [4]: 1.67% | NEUTROPHIL [4]: 4.33% | NUCLEATED RED BLOOD CELLS [4]: 0 /100WBC | PLATELET COUNT [4]: 607 x10E3/uL | ALANINE AMINOTRANSFERASE [4]: 90.67 u/L | ALBUMIN [4]: 3.93 G/DL | ALKALINE PHOSPHATASE [4]: 310.33 u/L | ASPARTATE AMINOTRANSFERASE [4]: 148 u/L | BLOOD UREA NITROGEN [4]: 13 mg/dL | CARBON DIOXIDE [4]: 37 mmol/L | CHLORIDE [4]: 95.67 MEQ/L | CHOLESTEROL [4]: 85.67 mg/dL | CREATINE PHOSPHOKINASE [4]: 246 u/L | CREATININE [4]: 0.16 mg/dL | GLUCOSE [4]: 139.33 mg/dL | LACTATE DEHYDROGENASE [4]: 200 u/L | LIPASE [4]: 13 u/L | PHOSPHORUS [4]: 11.33 mg/dL | POTASSIUM [4]: 6.73 MEQ/L | SODIUM [4]: 144.83 MEQ/L | TOTAL BILIRUBIN [4]: 0.23 mg/dL | TOTAL PROTEIN [4]: 5.43 G/DL | URIC ACID [4]: 1.9 mg/dL
